This is an account of results in patent US20100324036A1, “SUBSTITUTED IMIDAZOPYRIDINE DERIVATIVES AS MELANOCORTIN-4 RECEPTOR ANTAGONISTS” (SANTHERA PHARMACEUTICALS (SCHWEIZ) AG, priority 2007, published 2010).

Test [1] deals with T1, hMC-4R (Homo sapiens, UniProt P32245). Put plainly: Membrane binding assay, competition with fluorescence labeled NDP-alpha-MSH (fluorescence polarization). Also on record: expressed in transfected cells; host or cells: HEK293 cells (membrane preparations). Particulars: HEK293 cell membrane preparations. (In general: Fluorescence polarisation rises when a labelled molecule tumbles more slowly, as on binding a larger partner.)
T1 sequence (P32245 whole entry): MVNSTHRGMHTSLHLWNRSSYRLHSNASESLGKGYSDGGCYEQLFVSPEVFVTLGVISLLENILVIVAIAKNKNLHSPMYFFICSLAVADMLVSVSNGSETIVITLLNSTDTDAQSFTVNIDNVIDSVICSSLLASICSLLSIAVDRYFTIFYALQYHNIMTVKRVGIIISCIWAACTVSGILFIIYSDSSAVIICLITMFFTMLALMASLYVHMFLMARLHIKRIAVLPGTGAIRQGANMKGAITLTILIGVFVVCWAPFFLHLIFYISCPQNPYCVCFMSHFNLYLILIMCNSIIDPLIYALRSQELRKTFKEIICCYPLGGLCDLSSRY

Test [2] addresses T1, hMC-4R. Put plainly: Functional assay, cAMP formation in HEK293 membrane preparations (fluorescence polarization).

Where only a bound is given, the exact number is not on record here.

For orientation: IC50 means the concentration that inhibits the measured activity by half. For orientation: EC50 means the midpoint of the concentration-response curve.

At hMC-4R [1], `CC(C)CCN(CCC(C)C)C(=O)c1ccc2nc(C(=O)N3CCCC3)c(CCCN3CCCC3)n2c1` [Example 2] registered an IC50 of 100 to 1000 nM.
At hMC-4R [1], `CC(C)CCN(CCC(C)C)C(=O)c1ccc2nc(-c3n[nH]c(=O)n3C)c(CCCN3CCCC3)n2c1` [Example 13] registered an IC50 of 100 to 1000 nM.
On to `CC(C)CCN(CCC(C)C)C(=O)c1ccc2nc(CO)c(CCCN3CCCC3)n2c1` [Example 5], for which, at hMC-4R [1], the IC50 lay in the range of 100 to 1000 nM.
On hMC-4R [1], `CCNC(=O)c1nc2ccc(C(=O)N(CCC(C)C)CCC(C)C)cn2c1CCCN1CCCC1` [Example 4] registered an IC50 of 100 to 1000 nM.
On hMC-4R [1], `CC(C)CCN(CCC(C)C)C(=O)c1ccc2nc(N(C)c3ccccn3)c(CCCN3CCCC3)n2c1` [Example 21] showed an IC50 of 100 to 1000 nM.
`CC(C)CCN(CCC(C)C)C(=O)c1ccc2nc(-c3ccc4nccn4c3)c(CCCN3CCCC3)n2c1` [Example 24] returned an IC50 at hMC-4R [1] of less than 100 nM.
Same read-out and setting: the value for `CC(C)CCN(CCC(C)C)C(=O)c1ccc2nc(CCCN)c(CCCN3CCCC3)n2c1` [Example 28] was less than 100 nM; that for `COCc1noc(-c2nc3ccc(C(=O)N(CCC(C)C)CCC(C)C)cn3c2CCCN(C)C)n1` [Example 16] was 100 to 1000 nM; that for `CC(C)CCN(CCC(C)C)C(=O)c1ccc2nc(-c3nc(C4CC4)no3)c(CCCN3CCCC3)n2c1` [Example 12] was less than 100 nM.
Same read-out and setting: under `CC(C)CCN(CCC(C)C)C(=O)c1ccc2nc(-c3nc(C(C)(C)O)no3)c(CCCN3CCCC3)n2c1` [Example 11] stands 100 to 1000 nM.
Consider `CC(C)CCN(CCC(C)C)C(=O)c1ccc2nc(C(=O)OCC(C)C)c(CCCN3CCCC3)n2c1` [Example 20], for which, on hMC-4R [1], the IC50 was less than 100 nM.
In the case of `CC(C)CCN(CCC(C)C)C(=O)c1ccc2nc(CCCNC(=O)OC(C)(C)C)c(CCCN3CCCC3)n2c1` [Example 26], at hMC-4R [1], the IC50 is less than 100 nM.
In turn, `CC(C)CCN(CCC(C)C)C(=O)c1ccc2nc(C(=O)N3CCN(C)CC3)c(CCCN3CCCC3)n2c1` [Example 29] yielded an IC50 at hMC-4R [1] of 100 to 1000 nM.
`CC(C)CCN(CCC(C)C)C(=O)c1ccc2nc(C#N)c(CCCN3CCCC3)n2c1` [Example 8]: at hMC-4R [1], the IC50 was greater than 1000 nM. This compound had an EC50 on hMC-4R [2] of 100 to 1000 nM.
On hMC-4R [1], `CC(C)CCN(CCC(C)C)C(=O)c1ccc2nc(CNc3ccc4c(c3)OCO4)c(CCCN3CCCC3)n2c1` [Example 22] showed an IC50 of less than 100 nM.
As to `CC(C)CCN(CCC(C)C)C(=O)c1ccc2nc(C3CC3)c(CCCN3CCCC3)n2c1` [Example 6], the IC50 at hMC-4R [1] was in the range of 100 to 1000 nM.
Consider `CC(C)CCN(CCC(C)C)C(=O)c1ccc2nc(CCCN(C)C)c(CCCN3CCCC3)n2c1` [Example 27], for which the IC50 on hMC-4R [1] was less than 100 nM. Further, the EC50 at hMC-4R [2] is 100 to 1000 nM.
For the compound `CNC(=O)c1nc2ccc(C(=O)N(CCC(C)C)CCC(C)C)cn2c1CCCN1CCCC1` [Example 3], at hMC-4R [1], the IC50 was in the range of 100 to 1000 nM.
Compound `COCc1noc(-c2nc3ccc(C(=O)N(CCC(C)C)CCC(C)C)cn3c2CCCN2CCCC2)n1` [Example 9] yielded a half-maximal inhibitory concentration (IC50) on hMC-4R [1] of less than 100 nM. This compound registered a half-maximal effective concentration (EC50) on hMC-4R [2] of 100 to 1000 nM.
In the case of `CCOC(=O)c1nc2ccc(C(=O)N(CCC(C)C)CCC(C)C)cn2c1CCCN1CCCC1` [Example 1], the IC50 at hMC-4R [1] is less than 100 nM.
At hMC-4R [1], `Cc1noc(-c2nc3ccc(C(=O)N(CCC(C)C)CCC(C)C)cn3c2CCCN(C)C)n1` [Example 17] gave an IC50 of 100 to 1000 nM.
In turn, `Cc1noc(-c2nc3ccc(C(=O)N(CCC(C)C)CCC(C)C)cn3c2CCCN2CCCC2)n1` [Example 10] displayed an IC50 on hMC-4R [1] of less than 100 nM. Further, the EC50 on hMC-4R [2] is less than 100 nM.
The compound `CCOC(=O)CCc1nc2ccc(C(=O)N(CCC(C)C)CCC(C)C)cn2c1CCCN(C)C` [Example 14] had an IC50 at hMC-4R [1] of 100 to 1000 nM.
`CC(C)CCN(CCC(C)C)C(=O)c1ccc2nc(-c3nc(C(C)(C)O)no3)c(CCCN(C)C)n2c1` [Example 18] showed an IC50 on hMC-4R [1] of 100 to 1000 nM. The EC50 on hMC-4R [2] lay in the range of 100 to 1000 nM.
With `COCCOC(=O)c1nc2ccc(C(=O)N(CCC(C)C)CCC(C)C)cn2c1CCCN1CCCC1` [Example 19], the IC50 on hMC-4R [1] was less than 100 nM.
On the same count and under the same terms, the value for `COc1cccc(N(C)c2nc3ccc(C(=O)N(CCC(C)C)CCC(C)C)cn3c2CCCN2CCCC2)c1` [Example 23] was 100 to 1000 nM; that for `CCOC(=O)c1nc2ccc(C(=O)N(CCC(C)C)CCC(C)C)cn2c1CCCN(C)C` [Example 15] was 100 to 1000 nM.
On to `CC(C)CCN(CCC(C)C)C(=O)c1ccc2nc(C(=O)OC(C)C)c(CCCN3CCCC3)n2c1` [Example 7], for which the IC50 on hMC-4R [1] lay in the range of 100 to 1000 nM. At hMC-4R [2], this compound had an EC50 of 100 to 1000 nM.
